This is an account of results in patent US20250195552A1, “METHODS OF USING AVERMECTIN COMPOSITIONS FOR THE TREATMENT OF INFLAMMATORY DISORDERS AND DOSING REGIMENS” (priority 2022, published 2025).

“Also recorded” adds a separate entry of the source. Where two headings read alike, the source gives them in different places. Where only a bound is given, the exact number is not on record here.

For data set [1], the system named is focal seizures. Particulars: cited from earlier work.
Data set [2] deals with Monocytes-derived dendritic cells (moDC). Put plainly: TNF-α and IL-6 secretion in dendritic cells. The class given is cell-based, human. The conditions noted are these: moDC stimulated by Pam2CSK4 and Pam3CSK4, 24 hours, ELISA. On the procedure:
Monocytes-derived dendritic cells (moDC) were differentiated by culturing purified human monocytes with 25 ng/mL hGM-CSF and 50 ng/mL hTL-4 for 5-7 days to reach full differentiation. […] The supernatants were analyzed for IL-6 and TNF-α by ELISA. Bar graphs represent pooled data from 2-3 experiments.
For orientation: In an ELISA, binding on a coated surface is turned into a signal by an enzyme label.

Data set [3] deals with STAT3 and IkBα phosphorylation in human CD4+ T cells. Put plainly: Th17-induced STAT3 and IkBα phosphorylation (Western Blot). Format: cell-based. Particulars: Th17-skewing conditions, 2 hours. As for the experimental part: The cell lysates were prepared and analyzed by Western Blot. One representative of three different experiments is shown.
On the technique in general: A western blot detects proteins with antibodies after separation by electrophoresis.

For data set [4], the system named is TLR-induced human monocytes. The data set can be described thus: IL-1β secretion in TLR-induced monocytes. The class given is cell-based. Particulars: induced by LPS, Pam2CSK4 and Pam3CSK4 (100 ng/ml), 24 hours, ELISA. As for the experimental part: The supernatants were analyzed for IL-1β by ELISA.
A short description of data set [5]: Pharmacokinetics of Ivermectin B1a in SD rat plasma after IV or oral administration. As for the experimental part: Thirty-six male Sprague Dawley rats were randomly assigned into four groups, with nine male rats in each group. All animals in all groups are fasted overnight prior to the experimental date.
Blood samples were collected from 6 of 9 animals per group at 0.5, 1, 2, 3, 4, 6, 8, 24, 72, 120, 168 hours post-dose.

The nature of data set [6]: Ivermectin solubility determination in excipients.
Procedure: The solubility assessments were performed by continually adding a known amount of the API into each individual excipient and letting the excipient reach solubility equilibrium via API saturation (visible solid observed). The experiments were conducted at ambient conditions (25° C.) and were left to mix on a stir plate at 500 RPM for at least 72 hours.
In data set [7] the test system is Th17-skewed human CD4+ T cells. Put plainly: Cytokine secretion in Th17-skewed CD4+ T cells (ELISA). Format: cell-based. On the procedure:
The supernatants were analyzed for IL-17, TL-21 and IFN-γ by ELISA.

For data set [8], the system named is C57BL/6 mice. The data set can be described thus: Experimental autoimmune encephalomyelitis (EAE) model of MS. The class given is in vivo, mouse. The conditions noted are these: 1, 2, 4 mg/kg oral once daily, therapeutic from Day 14 to Day 34.
Procedure: Vehicle was 1.6% DMSO in water. […] These were frozen at −20° C. Every 3 to 4 days, one aliquot was thawed and diluted with water to create a fine suspension at 0.8 mg/mL (for 4 mg/kg dosing). Final DMSO concentration was 1.6%. […] Per customer, all dosing formulations were stable for up to 4 days at 4° C. FTY720 stock solution (30 mg/mL in ethanol) was prepared for all ongoing studies. Daily, the FTY720 stock solution was diluted with water to the final dosing concentration of 0.6 mg/mL.
A balanced distribution of mice was confirmed by comparing mean day of onset, average score at EAE onset, average score on Day 14 and average weight on Day 13.
EAE was induced on Day 0 by myelin oligodendrocyte glycoprotein (MOG35-55)/complete Freund's adjuvant (CFA) immunization, followed by pertussis toxin (PTX) injections on Days O and 1. Treatment was therapeutic, starting on Day 14. […] Treatment continued through Day 34. Mice were observed through the end of the study, Day 35.
Clinical scores were assessed as follows: 1=limp tail, 2=partial hind leg paralysis, 3=complete hind leg paralysis, 4=complete hindleg and partial front leg paralysis; 5=moribund.
In data set [9] the test system is PBMCs of human subjects. The data set can be described thus: Phase 1: IL-17 secretion in PBMCs stimulated ex vivo after oral administration. The conditions noted are these: oral 10-120 mg, significant at 80 and 120 mg SAD and at all MAD doses, anti-CD3/CD28 48 hrs. As for the experimental part: The supernatants were analyzed for IL-17 by ELISA.
Data set [10] has as its system LPS-induced human PBMCs. The data set can be described thus: LPS-induced secretion of TNF-α, IL-6 and IL-23 in PBMCs. Particulars: PBMC, LPS activation for 2 days, ELISA. Format: cell-based. As for the experimental part: The supernatants were analyzed for TNF-α, IL-6, and IL-23 by ELISA.
Data set [11] relates to human CD4+ T cells activated under Th17 skewing conditions. The data set can be described thus: FoxP3 expression (RT-PCR) and percentage of FoxP3+ T cells (Flow Cytometry). The class given is cell-based. The conditions noted are these: 1.5 mM of ivermectin, 5 days. As for the experimental part: FoxP3, IL-17A and RORc mRNA expression levels were tested by RT-PCR (A). The percentage of FoxP3^+ T cells was determined by Flow Cytometry by using intra-cellular staining with PE-conjugated anti-Foxp3 antibody (B).

Data set [12] relates to human PBMCs. The data set can be described thus: IL-17 and IFN-γ secretion in PBMCs stimulated by anti-CD3/CD28 in vitro. The class given is cell-based. The conditions noted are these: anti-CD3/CD28 stimulation, 48 hours, ELISA. On the procedure:
The supernatants were analyzed for IL-17 and IFN-γ by ELISA. One representative of three different experiments is shown.

Data set [13] has as its system Sprague-Dawley rats. Put plainly: Animal model of infantile spasms (NMDA-induced). Format: in vivo, rat. Particulars: 2 and 4 mg/kg i.p. daily P10-P15; p<0.05. An excerpt: A two-stage model of infantile spasms was developed (FIG. 23A). Pregnant Sprague-Dawley rats receive two injections of betamethasone on gestational (G) day 15. Offspring of those pregnancies are used for experiments during infancy, postnatal days (P) 10-15. Spasms are induced by i.p. injection of N-methyl-D-aspartic acid (NMDA), which is graded depending on the postnatal age of the subjects.
Days of dosing were P10, P11, P12, P13, P14 and P15.

Setting [14] is: single IV 2 mg/kg, fasting male SD rats, n = 6.

For the compound `NC(=O)N1c2ccccc2C[C@H](O)c2ccccc21` [APTIOM, Eslicarbazepine], the “Placebo-adjusted >50% Focal Seizure Reduction” value in [1] (1200 mg) was 20%. Moreover, the “Placebo-adjusted Median Reduction in Focal Seizure Frequency” value (“Placebo-adjusted Median Reduction” for short) in data set [1] (2000 mg) is 14-24%.

Turning to `CCC[C@@H]1CC(=O)N([C@@H](CC)C(N)=O)C1` [BRIVIACT, Brivaracetam], in [1] (200 mg), the “Placebo-adjusted >50% Focal Seizure Reduction” value is 18% and the “Placebo-adjusted Median Reduction” value was 26%.

In general, AUC(0-t) refers to exposure summed from dosing to a finite time, without extrapolation to infinity. Read a high AUC(0-t) as more exposure. As usually defined, the Cmax is the highest concentration seen after dosing. For the compound `CCC(C)C1OC2(CCC1C)CC1CC(CC=C(C)C(OC3CC(OC)C(OC4CC(OC)C(O)C(C)O4)C(C)O3)C(C)C=CC=C3COC4C(O)C(C)=CC(C(=O)O1)C34O)O2` (stereo not drawn) [Ivermectin], in [2], the IL-6 secretion result was “significantly and in a dose-dependent manner down-regulates; also recorded: dose dependent decrease”. In [2], the TNF-α secretion entry is “significantly and in a dose-dependent manner down-regulates; also recorded: dose dependent decrease”. In [3], the STAT3 phosphorylation entry is on record as “dose-dependent reduction”. Besides, the “inhibitor molecule protein (IkB)α phosphorylation” value in [3] is on record as “dose-dependent reduction”. Further, in [4], the IL-1β secretion entry is “significantly down-regulates; also recorded: reduced IL-1β in a dose-dependent manner”. Besides, the area under the curve AUC(0-t) in [5] (setting [14]) is 8259.31 ng·h/mL. For the same compound, the “AUC(0-∞)” value in data set [5] (setting [14]) amounted to 8273.53 ng·h/mL. Besides, the Cmax in [5] (setting [14]) worked out at 1722.67 ng/mL. For the same compound, in data set [5] (setting [14]), the “MRT(0-t)” value came to 10.58 h. Also, the “MRT(0-∞)” value in data set [5] (setting [14]) is 10.81 h. For the same compound, the T1/2 in data set [5] (setting [14]) amounted to 14.82 h; in data set [5] (single IV injection 2 mg/kg, male SD rats with fasting), 14.82 ± 0.72 h. Moreover, the Solubility in data set [6] (in Capryol 90, 25° C.) was 150.92 mg/g; in data set [6] (in Fractionated Coconut oil, 25° C.) it was 16.55 mg/g; in [6] (in Glycerin, 25° C.), below 0.1 mg/g; in data set [6] (in Kolliphor EL, 25° C.), 95.85 mg/g; in data set [6] (in Labrafil M 2125 CS, 25° C.) it was 35.32 mg/g; in [6] (in Labrasol ALF, 25° C.), 126.36 mg/g. The Solubility is given as 71.96 mg/g in data set [6] (in LauroglycolTM FCC, 25° C.); 60.17 mg/g in data set [6] (in Maisine CC, 25° C.); 164.06 mg/g in [6] (in Masester E8120, 25° C.); 16.49 mg/g in data set [6] (in Medium Chain Triglyceride, 25° C.); 48.58 mg/g in data set [6] (in Oleic acid, 25° C.); 4.71 mg/g in data set [6] (in Olive oil, 25° C.). Besides, the Solubility was found to be 112.92 mg/g in data set [6] (in PEG 400, 25° C.); 25.61 mg/g in data set [6] (in Propylene glycol, 25° C.); 6.72 mg/g in data set [6] (in Soybean oil, 25° C.); 97.66 mg/g in data set [6] (in Span 20, 25° C.); 54.04 mg/g in data set [6] (in Span 80, 25° C.); 58.75 mg/g in [6] (in Triacetin, 25° C.). For the same compound, the Solubility was 88.26 mg/g in [6] (in Tween 80, 25° C.) and 82.98 mg/g in [6] (in Vitamin E TPGS, table title 25° C., text: conducted at 40° C.). Also, the EC50 in [7] (Th17-skewing conditions, additional experiment (FIG. 6B), read-out: EC, inhibition of CXCL13 secretion) came out at 378 nM; in data set [7] (anti-CD3/CD28 + IL-1β + TGF-β (Th17-skewing), 48 hours, ELISA, read-out: EC50, inhibition of IFN-γ secretion), 541 nM; in [7] (anti-CD3/CD28 + IL-1β + TGF-β (Th17-skewing), 48 hours, ELISA, read-out: EC50, inhibition of IL-17 secretion), 450 nM; in data set [7] (anti-CD3/CD28 + IL-1β + TGF-β (Th17-skewing), 48 hours, ELISA, read-out: EC50, inhibition of IL-21 secretion), 364 nM; in data set [10] (read-out: EC50, decrease of IL-6) it was 1300 nM; in data set [10] (read-out: EC50, decrease of IL-23), 470 nM. The EC50 is 1400 nM in data set [10] (read-out: EC50, decrease of TNF-α); 987 nM in data set [12] (read-out: EC50, decrease of IFN-γ); 416 nM in data set [12] (read-out: EC50, decrease of IL-17). Further, the “limb paralysis (clinical score) in EAE model of MS” value in data set [8] is given as “significantly downregulates limb paralysis”. For the same compound, the “ability of T cells to secrete IL-17 in response to TCR stimulation ex vivo” value in [9] was “down-regulates”. Besides, in data set [11] (Flow Cytometry), the “increase in the percentage of Foxp3+ T cells” value stood at 50%. Further, the “FoxP3 mRNA levels” value in data set [11] (RT-PCR) is “up-regulation”. Also, the “IL-17A mRNA expression” value in data set [11] (RT-PCR) was “decreased”. Moreover, the “RORc mRNA expression” value in data set [11] (RT-PCR) is on record as “decreased”. In data set [13], the “occurrence (number) of spasms triggered on P15 vs vehicle controls” value is “significantly suppressed occurrence of spasms; also recorded: significantly fewer spasms”.

Turning to `CC[C@@H](C(N)=O)N1CCCC1=O` [KEPPRA, Leviteracetam], in data set [1] (3000 mg), the “Placebo-adjusted >50% Focal Seizure Reduction” value is 29% and the “Placebo-adjusted Median Reduction” value was 23-31%.

In the case of `COC[C@@H](NC(C)=O)C(=O)NCc1ccccc1` [VIMPAT, Lacosamide], in data set [1] (400 mg), the “Placebo-adjusted >50% Focal Seizure Reduction” value was 17% and the “Placebo-adjusted Median Reduction” value is 15-29%.

Turning to `NC(=O)O[C@@H](Cn1ncnn1)c1ccccc1Cl` [XCOPRI, Cenobamate], in data set [1] (400 mg), the “Placebo-adjusted >50% Focal Seizure Reduction” value is given as 39%. The “Placebo-adjusted Median Reduction” value in data set [1] (4200 mg) is on record as 31%.

Consider `Cc1cc(N2CCc3cc(F)ccc3C2)cc(C)c1NC(=O)CC(C)(C)C` [XEN1101], for which, in [1] (25 mg), the “Placebo-adjusted >50% Focal Seizure Reduction” value is given as 40% and the “Placebo-adjusted Median Reduction” value is 35%.
